Tested on: soil fungal community
Test: Plant associated soil microbiome: fungal community by ITS amplicon sequencing
Format: in vivo, tomato plants
Source text: Differential abundance of fungal taxa after 97 days in treated soil, as detected by PCR amplification and successive high-throughput sequencing of fungal taxonomical marker genes (the small-subunit ribosomal RNA gene (16S) and the ribosomal internal transcribed spacers (ITS) respectively) on plant-associated soil samples.
To detect microbial community modifications in the soil microbiome associated with the cyclobutrifluram treatment against root knot nematodes, PCR amplification and successive high-throughput sequencing of bacterial and fungal taxonomical marker genes (the small-subunit ribosomal RNA gene (16S) and the ribosomal internal transcribed spacers (ITS) respectively) were performed on plant-associated soil samples.
Comparison of the fungal community of Control and RKN-Cyclobutrifluram plant-associated 5 soil samples highlighted a microbiome shift mainly characterised by the reduction of the plant-pathogen Fusarium, an ubiquitous pathogenic fungus that constitutes an abundant taxon in control soil. Fusarium relative abundance results reduced from 17.8% in control samples to 7.5% after cyclobutrifluram treatment. Table 1b reports fungal genera detected by ITS gene amplicon sequencing with taxonomy assignment at genus level; relative abundance in Control and Cyclobutrifluram treated samples statistically significative (Deseq2, p=0.1), the relative abundance variation.

[1] = Cyclobutrifluram treated plant-associated soil, RKN

## O=C(N[C@@H]1CC[C@@H]1c1ccc(Cl)cc1Cl)c1cccnc1C(F)(F)F (racemic) [Cyclobutrifluram, cyclobutrifluram]
[1]
  Relative abundance, Acremonium: 0.214%
  Relative abundance, Arthrinium: 0.398%
  Relative abundance, Candida: 0.839%
  Relative abundance, Chrysosporium: 17.327%
  Relative abundance, Cladosporium: 3.983%
  Relative abundance, Conostachys: 0.797%
  Relative abundance, Eleutherascus: 0.217%
  Relative abundance, Endoconidiophora: 5.102%
  Relative abundance, Fusarium: 7.544%
  Relative abundance, Humicola: 0.000%
  Relative abundance, Lectera: 1.767%
  Relative abundance, Monocillium: 0.083%
  Relative abundance, Mortierella: 2.111%
  Relative abundance, Mycosphaerella: 1.672%
  Relative abundance, Oidiodendron: 0.292%
  Relative abundance, Paraphoma: 0.043%
  Relative abundance, Phialemonium: 0.357%
  Relative abundance, Pseudaleuria: 1.936%
  Relative abundance, Pseudogymnoascus: 0.870%
  Relative abundance, Saitozyma: 0.907%
  Relative abundance, Schwanniomyces: 0.017%
  Relative abundance, Sebacina: 0.077%
  Relative abundance, Solicoccozyma: 0.407%
  Relative abundance, Tetracladium: 0.318%
  Relative abundance, Verticillium: 0.571%
Cyclobutrifluram treated plant-associated soil, RKN, listed as cyclobutrifluram
  Relative abundance, Fusarium: 7.5%
Deseq2, p=0.1
  relative abundance variation vs Control, Acremonium: +0.056%
  relative abundance variation vs Control, Arthrinium: +0.293%
  relative abundance variation vs Control, Candida: −0.269%
  relative abundance variation vs Control, Chrysosporium: +2.918%
  relative abundance variation vs Control, Cladosporium: −1.949%
  relative abundance variation vs Control, Conostachys: +0.132%
  relative abundance variation vs Control, Eleutherascus: +0.108%
  relative abundance variation vs Control, Endoconidiophora: +2.581%
  relative abundance variation vs Control, Fusarium: −10.274%
  relative abundance variation vs Control, Humicola: −0.112%
  relative abundance variation vs Control, Lectera: +1.617%
  relative abundance variation vs Control, Monocillium: +0.070%
  relative abundance variation vs Control, Mortierella: −0.412%
  relative abundance variation vs Control, Mycosphaerella: −0.541%
  relative abundance variation vs Control, Oidiodendron: +0.054%
  relative abundance variation vs Control, Paraphoma: −0.023%
  relative abundance variation vs Control, Phialemonium: −0.044%
  relative abundance variation vs Control, Pseudaleuria: +1.181%
  relative abundance variation vs Control, Pseudogymnoascus: +0.550%
  relative abundance variation vs Control, Saitozyma: −0.038%
  relative abundance variation vs Control, Schwanniomyces: −0.005%
  relative abundance variation vs Control, Sebacina: −0.027%
  relative abundance variation vs Control, Solicoccozyma: +0.082%
  relative abundance variation vs Control, Tetracladium: +0.088%
  relative abundance variation vs Control, Verticillium: +0.156%
Apart from inhibiting Fusarium
  effect on soil microbiome diversity (fungal taxa, FIG. 1): preserves soil microbiome diversity
Soil of tomato plants in presence of RKN infestation, medium-long term
  relative abundance of the plant-pathogen Fusarium (in words): substantially reduced

Reference: patent US20260191196A1, “COMPOSITIONS AND METHODS FOR IMPROVING SOIL MICROBIAL POPULATIONS” (SYNGENTA CROP PROTECTION AG, priority 2022, published 2026)
